# Patent publication US20150105324A1, “COMPOSITIONS AND METHODS FOR TREATING PTSD AND RELATED DISEASES” (INDIANA UNIVERSITY RESEARCH AND TECHNOLOGY CORPORATION, priority 2012, published 2015)
# Tests used:
# rats [1] = assay: Open Field Test of Anxiety; type: in vivo, rat; conditions: i.p. 60 min prior to 5 min test; IC87201 4 mg/kg, ZL006 10 mg/kg; vs vehicle
# Description: Open Field Test of Anxiety. Adult male rats are evaluated in a conventional open field test. Compounds described herein are evaluated compared to vehicle controls. Animals are observed for duration of time spent in regions of the open field (inner region versus outer region) and line crossings during a […] period following a systemic injection of vehicle or a test compound.
# (§1) Results. Animals are systemically pre-treated by i.p. injections with two different agents that are known to disrupt the nNOS-PSD95 interaction, IC87201 (4 mg/kg) and ZL006 (10 mg/kg), 60 min prior to a 5 min open field test immediately followed by a 5 min social interaction test. […] (Inner time F(2,17)=0.4, p=0.678; Outer time F(2,17)=0.4, p=0.678; Line crossings F(2,17)=1.0, p=0.405; n=6/group).
# [2] = test system: rats (conditioned fear, percent time freezing); assay: Conditioned Fear Test; type: in vivo, rat; conditions: for acquisition of conditioned fear / fear extinction: compared to respective vehicle groups; for fear extinction: post conditioning treatment; for percent time freezing on test day 1 / percent time freezing during acquisition / percent time freezing during recall: rats; for percent time freezing on test day 1: after fear conditioning, FIGS. 1 and 2; for percent time freezing on test day 1 / percent time freezing during acquisition: vs vehicle; for percent time freezing during acquisition: acquisition of fear conditioning; for percent time freezing during recall: recall on day 3; for conditioned fear response 24 hours later (day 3 fear recall): treatment 5-60 min following the day 2 conditioning session
# Description: Conditioned Fear Test. The conditioning chamber (Hamilton-Kinder, Paolo Alto, Calif.) is equipped to present light and tone cues along with a video camera set up to record behavior. The entire chamber is enclosed in a sound attenuated box. The animals went through 5 days of experimentation: Day 1 Habituation; Day 2 Conditioning; Day 3 Fear recall testing; Day 4 Extinction Training; and Day 5 Extinction Recall Test. Day 1 Habituation: Rats are exposed to the chambers for 10 min. Day 2 Conditioning: Rats are given five presentations of the tone CS (4 kHz, 80 dB, 20 sec) each co-terminating with a 0.8 mA foot shock lasting 0.5-s (US). The first CS-US pairing is presented 120 s into the session and the inter-trial interval (ITI) between CS-US presentations is 105 s on average (range 90-120). Conditioning sessions last about 11 minutes. Day 3 Fear recall tests: Twenty-four hours following the acquisition training, rats are given five 20-s CS presentations in the absence of the US. The first tone is presented 120 s into the session and the inter-trial interval (ITI) between CS-US presentations is 105 s on average (range 90-120). Percent time spent freezing is measured during each tone as an indication of fear recall. Recall test sessions last about 11 minutes. Extinction Training: Rats are exposed to 20 presentations of the CS in the absence of the US (mean ITI 180 s, range 120 to 240 s). Extinction Recall Test: 10 presentations of the CS only (mean ITI 180 s, range 120 to 240 s) are given 24 hrs after extinction.
# [3] = test system: cGMP production induced by a NO donor; conditions: (Florio 2009); cited from earlier work
# [4] = test system: rats (conditioned fear, percent time freezing); assay: Conditioned Fear Test; type: in vivo, rat; conditions: extinction on day 2, vs vehicle
# [5] = test system: cortical neurons stimulated with glutamate and glycine; assay: Cell viability (LDH release) assay, glutamate/glycine exposed neurons; type: cell-based; conditions: FIG. 7; for glutamate receptor induced cell death: primary neuronal slices
# Description: Cell viability assays. An LDH release assay was used for the measurement of cell viability. Cortical neurons were stimulated with glutamate and glycine in Mg^2+-free Locke's buffer. The neurons were washed with the buffer and incubated in cell-culture media for 12 h. Subsequently, LDH in the cell-culture media and total LDH after cell lysis were measured according to the manufacturer's instructions. LDH release was defined as ratio of LDH in the media to total LDH and normalized to the fold of control.
# [6] = biological target: PSD95-cypin protein-protein interaction (Homo sapiens, UniProt P78352); conditions: plate binding assay (Florio 2009); cited from earlier work
# Sequence of PSD95-cypin protein-protein interaction (P78352 whole entry): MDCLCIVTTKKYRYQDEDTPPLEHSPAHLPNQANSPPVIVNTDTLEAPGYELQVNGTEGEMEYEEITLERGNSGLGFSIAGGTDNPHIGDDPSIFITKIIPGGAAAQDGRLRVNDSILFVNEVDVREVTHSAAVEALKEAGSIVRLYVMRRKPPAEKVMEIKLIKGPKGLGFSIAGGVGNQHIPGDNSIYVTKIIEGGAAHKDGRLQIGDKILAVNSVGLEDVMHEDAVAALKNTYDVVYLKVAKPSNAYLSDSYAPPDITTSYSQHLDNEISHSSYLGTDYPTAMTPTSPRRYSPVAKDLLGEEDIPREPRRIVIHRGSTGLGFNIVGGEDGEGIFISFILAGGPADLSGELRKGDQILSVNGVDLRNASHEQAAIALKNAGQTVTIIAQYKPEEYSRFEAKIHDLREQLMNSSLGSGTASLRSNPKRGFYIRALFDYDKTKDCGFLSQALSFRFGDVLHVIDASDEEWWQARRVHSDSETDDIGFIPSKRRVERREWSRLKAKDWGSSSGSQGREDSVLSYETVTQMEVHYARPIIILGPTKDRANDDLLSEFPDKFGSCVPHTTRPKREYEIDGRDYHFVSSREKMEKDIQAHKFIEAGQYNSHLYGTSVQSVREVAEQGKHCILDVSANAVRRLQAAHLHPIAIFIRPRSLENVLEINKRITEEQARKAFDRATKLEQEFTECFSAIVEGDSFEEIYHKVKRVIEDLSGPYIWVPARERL
# [7] = test system: NMDA-induced increase of cGMP in primary cultured hippocampal neurons; assay: NMDA-induced increase in cGMP in primary rat hippocampal neurons; type: cell-based
# Description: NMDA-induced increase in cGMP in primary rat hippocampal neurons Neonatal rat hippocampal cultures were prepared according to Brewer (1997). Cells were cultured for 14-21 days before testing. NMDA ([…]) increased cGMP (measured by a cGMP-RIA kit from Perkin-Elmer) within 2-15 min of addition. The NMDA receptor antagonist, MK-801, and a NOS catalytic inhibitor, L-NAME, were used as positive controls.
# NMDA-induced increase in cGMP in primary rat hippocampal neurons. Neonatal rat hippocampal cultures were prepared according to Brewer (1997). Cells were cultured for 14-21 days before testing. NMDA ([…]) increased cGMP (measured by a cGMP-RIA kit from Perkin-Elmer) within 2-15 min of addition. The NMDA receptor antagonist, MK-801, and a NOS catalytic inhibitor, L-NAME, were used as positive controls.
# rats [8] = assay: Social Interaction test; type: in vivo, rat; conditions: i.p. 60 min prior; IC87201 4 mg/kg, ZL006 10 mg/kg; vs vehicle
# Description: Social Interaction. Adult male rats are evaluated in a conventional social interaction assay. Compounds described herein are evaluated compared to vehicle controls. Animals are observed for duration of time spent in regions of open field test (inner region versus outer region) and line crossings during a 60 min period following a systemic injection of vehicle or a test compound.
# as §1
# nNOS-PSD95 interaction = biological target: T1, nNOS-PSD95 interaction (Mus musculus, UniProt Q9Z0J4); assay: Co-immunoprecipitation of nNOS-PSD95 complex in cortex of mice (MCAO/reperfusion); type: in vivo
# T1 construct: from tissue; host or cells: mouse cortex
# T1 sequence (Q9Z0J4 whole entry, the tested form may be a part): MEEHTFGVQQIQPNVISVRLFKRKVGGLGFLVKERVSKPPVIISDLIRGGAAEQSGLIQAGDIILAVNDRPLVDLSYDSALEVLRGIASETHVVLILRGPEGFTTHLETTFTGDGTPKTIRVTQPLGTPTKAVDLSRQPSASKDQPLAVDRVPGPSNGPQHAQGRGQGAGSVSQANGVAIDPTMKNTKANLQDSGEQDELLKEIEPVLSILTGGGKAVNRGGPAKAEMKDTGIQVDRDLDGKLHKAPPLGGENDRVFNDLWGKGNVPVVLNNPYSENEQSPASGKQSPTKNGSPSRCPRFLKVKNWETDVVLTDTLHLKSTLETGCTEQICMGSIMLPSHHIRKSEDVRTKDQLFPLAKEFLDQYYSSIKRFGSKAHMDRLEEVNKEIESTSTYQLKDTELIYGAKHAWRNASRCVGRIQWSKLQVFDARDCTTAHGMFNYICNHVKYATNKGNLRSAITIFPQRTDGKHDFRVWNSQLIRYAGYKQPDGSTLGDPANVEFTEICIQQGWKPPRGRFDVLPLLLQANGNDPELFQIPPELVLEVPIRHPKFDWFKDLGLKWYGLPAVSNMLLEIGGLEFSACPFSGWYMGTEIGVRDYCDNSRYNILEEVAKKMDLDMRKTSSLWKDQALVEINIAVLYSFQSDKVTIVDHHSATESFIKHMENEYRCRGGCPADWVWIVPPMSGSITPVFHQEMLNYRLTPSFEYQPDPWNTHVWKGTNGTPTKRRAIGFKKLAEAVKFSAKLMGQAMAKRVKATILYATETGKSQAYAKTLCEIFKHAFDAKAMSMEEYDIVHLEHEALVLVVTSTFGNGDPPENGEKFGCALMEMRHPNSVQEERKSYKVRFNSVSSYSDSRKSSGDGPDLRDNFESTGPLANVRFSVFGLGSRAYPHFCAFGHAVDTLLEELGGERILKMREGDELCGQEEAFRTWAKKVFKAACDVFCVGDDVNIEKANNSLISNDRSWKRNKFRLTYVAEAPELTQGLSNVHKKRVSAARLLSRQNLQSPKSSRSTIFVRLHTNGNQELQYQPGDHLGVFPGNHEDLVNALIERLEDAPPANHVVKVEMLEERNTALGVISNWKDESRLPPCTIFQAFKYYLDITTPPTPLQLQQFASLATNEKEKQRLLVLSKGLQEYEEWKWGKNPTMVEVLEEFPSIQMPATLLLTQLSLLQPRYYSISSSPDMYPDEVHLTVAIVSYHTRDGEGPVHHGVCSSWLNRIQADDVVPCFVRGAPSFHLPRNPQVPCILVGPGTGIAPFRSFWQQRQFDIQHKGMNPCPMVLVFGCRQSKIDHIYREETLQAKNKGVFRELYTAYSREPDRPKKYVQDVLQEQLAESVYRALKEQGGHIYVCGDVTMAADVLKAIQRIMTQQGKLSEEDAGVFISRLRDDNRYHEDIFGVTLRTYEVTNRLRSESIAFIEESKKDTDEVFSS
# Description: (§2) Co-immunoprecipitation. Cultured neurons, organotypic hippocampal slice cultures (OHSCs) or the cortices of mice were lysed and centrifuged. The supernatant was preincubated with protein G-Sepharose beads (Sigma-Aldrich) and then centrifuged to obtain the target supernatant. The antibodyconjugated protein G-Sepharose beads were incubated with the target supernatant, centrifuged, washed and heated the beads to elute bound proteins and analyzed proteins by immunoblotting.
# (§3) Coimmunoprecipitation. Neurons were washed in PBS twice, and then lysed in 400 μl buffer A (50 mM Tris-HCl [pH 7.4], 150 mM NaCl, 1 mM EDTA-Na, 1% NP-40, 0.02% sodium azide, 0.1% SDS, 0.5% sodium deoxycholate, 1% PMSF, 1‰ aprotinin, 1‰ leupeptin, and 0.5‰ pepstatin A). The lysates were centrifugated at 12,000×g for 15 min at 4° C. […] Proteins were analyzed by immunoblotting.
# (§4) Samples were immunoprecipitated and analyzed by western blotting with the indicated antibodies (IP for nNOS, and WB for PSD-95), and analyzed for (a) nNOS-PSD-95 complex amounts in the cortex of mice subjected to 90 min MCAO and 30 min reperfusion (n=3), as shown in FIG. 5A in wild type mice after MCAO, and (b) nNOS-PSD-95 complex amounts in neurons exposed to 50 μM glutamate with 10 μM glycine for 30 min (n=3). […]
# nNOS-CAPON interaction = biological target: T2, nNOS-CAPON interaction (Mus musculus, UniProt Q9Z0J4); assay: Co-immunoprecipitation of nNOS-CAPON in ischemic cortexes; type: in vivo; conditions: 1.5 mg kg-1 i.v. 15 min before MCAO
# T2 construct: from tissue; host or cells: mouse ischemic cortex
# T2 sequence (Q9Z0J4 whole entry): as the sequence (Q9Z0J4 whole entry, the tested form may be a part) above
# Description: (§5) Coimmunoprecipitation. Neurons were washed in PBS twice, and then lysed in 400 μl buffer A (50 mM Tris-HCl [pH 7.4], 150 mM NaCl, 1 mM EDTA-Na, 1% NP-40, 0.02% sodium azide, 0.1% SDS, 0.5% sodium deoxycholate, 1% PMSF, 1‰ aprotinin, 1‰ leupeptin, and 0.5‰ pepstatin A). The lysates were centrifugated at 12,000×g for 15 min at 4° C. The OHSCs or cortex of mice was homogenized in ice-cold lysis buffer A. After lysis for 15 min, samples were centrifuged at 20,000×g for 15 min. The supernatant were preincubated for 1 h at 4° C. with 0.025 ml of protein G-sepharose beads (Sigma-Aldrich) and then centrifuged to remove proteins that adhered nonspecifically to the beads and obtain the target supernatant for following IP experiment. Protein G Sepharose beads were incubated with antibodies (rabbit antibody to nNOS, 1:100, Affinity BoReagents; rabbit antibody to PSD95, 1:100, Cell Signaling Technology; and rabbit antibody to NR2B antibody, 1:200, Chemicon) for 3-4 h. The antibodies-conjugated protein G-sepharose beads and the target supernatant were added for incubation overnight. Immune complexes were isolated by centrifugation, washed 4 times with 0.05 M HEPES buffer, pH 7.1, containing 0.15% Triton X-100, 0.15 M NaCl, and 0.1×10^−3 M sodium orthovanadate, and bound proteins were eluted by heating at 100° C. in loading buffer. Proteins were analyzed by immunoblotting. […]
# [9] = test system: NOS (total NOS, nNOS) in homogenates from the cortex of mice; assay: NOS activity assay; type: biochemical, mouse; conditions: 10 μM, 30 min
# Description: NOS activity assay. Nitric oxide synthase activities in the hippocampus were measured using a conventional assay. Briefly, the hippocampus was homogenized in ice-cold PBS, pH 7.4, and centrifuged at 10,000 g for 20 min at 4° C. The supernatant was ultracentrifuged at 100,000×g for 15 min at 4° C. using a 300 kDa molecular weight cut-off filter by centrifugation. NOS activity in the filtrates was measured using a commercially available kit (Calbiochem). […] Neuronal NOS activity was computed by subtracting the iNOS activity from the total NOS activity with the inhibited fraction of eNOS. Inducible NOS activity was measured by adding EGTA at 3 mM to chelate free Ca^2+ from the reaction mixture. NOS activities were expressed as unit (U). One U was defined as nanomoles of NO formed in 1 min by 1 mg of protein.
# [10] = test system: NMDARs EPSCs of CA1 pyramidal neurons; assay: Electrophysiological recordings in hippocampal slices; type: cell-based; conditions: 1.0 μM, rat hippocampal slices, low-Mg2+ ACSF
# Description: Electrophysiological recordings. […] Briefly, 3 weeks old rats were anesthetized with ethyl ether and decapitated, and whole hippocampus was removed from the brain. Coronal brain slices (350 μm thickness) were cut using a vibrantly blade microtome in ice-cold artificial CSF (ACSF) containing the following (in mM) 126 NaCl, 2.5 KCl, 1 MgCl2, 1 CaCl2, 1.25 KH2PO4, 26 NaHCO3, and 20 glucose. ACSF was bubbled continuously with carbogen (95% O2 and 5% CO2) to adjust the pH to 7.4. Fresh slices were incubated in chamber with carbogenated ACSF and recovered at 34° C. for at least 1.5 h before they were transferred to recording chamber. For the recording of EPSCs, the individual slices were transferred to a recording chamber, and CA1 pyramidal neurons were viewed under upright microscopy (Olympus). […] Excitatory postsynaptic responses of CA1 pyramidal neurons were evoked by stimulating the Schaffer fibers through a constant-current pulse delivered by a bipolar tungsten electrode and recorded with Axopatch-200B amplifier (Molecular Devices). […] The baseline was recorded at least 10 min to ensure the stability of the response. Data were collected with pClamp 9.2 software and analyzed using Clampfit 9.2 (Molecular Devices).
# PSD95-SynGAP interaction = biological target: T3, PSD95-SynGAP interaction (Mus musculus, UniProt Q62108); assay: Co-immunoprecipitation of PSD95-SynGAP in ischemic cortexes; type: in vivo; conditions: 1.5 mg kg-1 i.v. 15 min before MCAO
# T3 construct: from tissue; host or cells: mouse ischemic cortex
# T3 sequence (Q62108 whole entry): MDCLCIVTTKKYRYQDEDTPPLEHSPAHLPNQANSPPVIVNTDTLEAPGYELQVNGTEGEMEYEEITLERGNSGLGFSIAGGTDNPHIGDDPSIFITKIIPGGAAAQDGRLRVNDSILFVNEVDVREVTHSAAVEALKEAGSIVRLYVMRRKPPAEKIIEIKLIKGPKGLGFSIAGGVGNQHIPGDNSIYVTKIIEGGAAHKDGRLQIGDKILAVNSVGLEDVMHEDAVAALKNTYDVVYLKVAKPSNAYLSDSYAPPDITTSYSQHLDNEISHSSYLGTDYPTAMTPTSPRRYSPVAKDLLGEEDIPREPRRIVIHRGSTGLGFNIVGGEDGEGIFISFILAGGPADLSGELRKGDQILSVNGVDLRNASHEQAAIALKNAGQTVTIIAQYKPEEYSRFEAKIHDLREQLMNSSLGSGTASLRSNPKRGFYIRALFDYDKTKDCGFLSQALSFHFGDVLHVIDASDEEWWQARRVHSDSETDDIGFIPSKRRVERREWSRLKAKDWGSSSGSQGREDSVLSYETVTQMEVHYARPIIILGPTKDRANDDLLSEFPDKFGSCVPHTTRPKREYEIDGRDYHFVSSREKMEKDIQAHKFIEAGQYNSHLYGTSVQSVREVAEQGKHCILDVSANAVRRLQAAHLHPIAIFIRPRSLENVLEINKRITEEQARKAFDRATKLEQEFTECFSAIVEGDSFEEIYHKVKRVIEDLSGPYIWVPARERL
# Description: as §5
# [11] = 1.5 mg/kg i.v., 15 and 60 min after dosing; FIG. 8 (Zhou 2010); cited from earlier work
# nNOS-PSD95 complex = assay: Co-immunoprecipitation of nNOS-PSD95 complex in neuronal cultures; type: cell-based
# Description: as §2, §3, §4
Compound,duration of time spent in regions of the open field (inner region versus outer region) (rats [1]),number of line crossings (rats [1]),acquisition of conditioned fear [2],fear extinction [2],percent time freezing on test day 1 [2],percent time freezing during acquisition [2],percent time freezing during recall ([2]; data not shown),conditioned fear response 24 hours later (day 3 fear recall) [2],percent time freezing during extinction [4],glutamate receptor induced cell death [5],social interaction duration (rats [8]),also measured
"Oc1c(Cl)cc(Cl)cc1CNc1ccc2[nH]nnc2c1 [IC87201, 2-((1H-benzo[d][1,2,3]triazol-5-ylamino)methyl)-4,6-dichlorophenol]",not observed a significant difference,not observed a significant difference,identical acquisition of conditioned fear,normal patterns of fear extinction,reduced the percent time freezing on test day 1,Neither IC8701 nor ZL006 altered the percent time freezing,Neither IC8701 nor ZL006 altered the percent time freezing,significant attenuation of conditioned fear response,Neither IC8701 nor ZL006 altered the percent time freezing,disrupt nNOS downstream signaling,improvement in social interaction duration,"effect on cGMP production induced by a NO donor [3]: no effect; disruption of PSD95-cypin protein-protein interaction [6]: does not disrupt; attenuation of NMDA-induced increases in cGMP [7]: dose-dependently attenuated NMDA-induced increases in cGMP; IC50 ([7]; Rattus norvegicus, Hippocampal neuron, n=14-20, FIG. 6, read-out: IC50, attenuation of NMDA-induced increase of cGMP): 2700 nM"
O=C(O)c1ccc(NCc2cc(Cl)cc(Cl)c2O)cc1O [ZL006],not observed a significant difference,not observed a significant difference,identical acquisition of conditioned fear,normal patterns of fear extinction,reduced the percent time freezing on test day 1,Neither IC8701 nor ZL006 altered the percent time freezing,Neither IC8701 nor ZL006 altered the percent time freezing,significant attenuation of conditioned fear response,Neither IC8701 nor ZL006 altered the percent time freezing,disrupt nNOS downstream signaling,not observed a significant difference,"freezing, extinction ([2]; 10 mg/kg i.p., after the acquisition day, 1 hour prior to the consolidation day, FIG. 3): improved extinction; freezing, recall ([2]; 10 mg/kg i.p., after the acquisition day, 1 hour prior to the consolidation day, data not shown): improved recall; nNOS-PSD95 interaction in the non-ischemic cortex (nNOS-PSD95 interaction; non-ischemic cortex, n=3, ZL006 vs vehicle): did not show a significant effects; ischemic induced increase in nNOS-PSD95 interaction (nNOS-PSD95 interaction; wild type mice, MCAO and reperfusion): blocks the ischemic induced increase in nNOS-PSD95 interaction; co-immunoprecipitation of nNOS-Capon interaction (nNOS-CAPON interaction): does not inhibit; NMDAR-dependent excitotoxicity (lactate dehydrogenase release) and cerebral ischemia ([5]; cultured neurons exposed to 50 μM glutamate with 10 μM glycine for 30 min): prevents NMDAR-dependent excitotoxicity and cerebral ischemia; NOS activity / NOS catalytic activity [9]: does not inhibit NOS activity; NMDARs EPSCs [10]: does not inhibit NMDARs EPSCs; co-immunoprecipitation of PSD95-SynGAP interaction (PSD95-SynGAP interaction): does not inhibit; penetration in the CNS (concentrations in serum, CSF and brain tissue) [11]: significant penetration in the CNS; co-immunoprecipitation of nNOS-PSD95 complex (nNOS-PSD95 complex): inhibits the in co-immunoprecipitation of nNOS-PSD95 complex"
